# Measured values from patent US7674767B2, “Nanoparticle compositions of water-soluble drugs for oral administration and preparation methods thereof” (Samyang Corporation, priority 2003, dated 2010).
# Assay: Gastrointestinal absorption test, blood concentration of ceftriaxone after intra-duodenal administration
# Type: in vivo, Sprague Dawley rat
# Conditions: intra-duodenal 40 mg/kg, normal rats
# Method: Normal rat (Sprague Dawley, male, weighing about 200 g) was ether-anesthetized, and the abdomen was opened. The duodenum was taken and the nanoparticle liquid formulation containing ceftriaxone was administered thereto at 40 mg/kg as ceftriaxone.
# The formulations of Examples 6 and Example 7, and Comparative Example 5 were used for test groups. The formulation of Comparative Example 5 is one containing neither ceftriaxone-counter-ion complex nor polymer, and so having lower drug entrapping rate and incapable of controlling drug dissolution compared with that of Example 6.
# Blood was gathered from tail vein at 0, 0.5, 1, 1.5, 2, 3 and 4 hours after the drug administration, and analyzed according to ceftriaxone analysis method of the US Pharmacopoeia. The blood was centrifuged at 3000 rpm for 10 minutes, and pretreated by adding the equal amount of acetonitrile thereto.
# As reference group 1, ceftriaxone dissolved in water was administered at 40 mg/kg via the same route as Example 6.
# As reference group 2, ceftriaxone dissolved in a physiological saline was intravenously injected at 20 mg/kg.
smiles,measurement,value
"CO/N=C(\C(=O)N[C@@H]1C(=O)N2C(C(=O)O)=C(CSc3nc(=O)c(=O)[nH]n3C)CS[C@H]12)c1csc(N)n1 [aqueous solution of ceftriaxone, ceftriaxone]",absorption of ceftriaxone in vivo,not nearly absorbed
